Values quoted from earlier work in patent US20110129540A1, “Polymer of acrylic or methacrylic type comprising alpha-tocopherol grafts” (Flamel Technologies, priority 2009, published 2011).
Converted amounts (≈) assume the structure as drawn.

Details: no polymer

Compound: COc1ccccc1OCCNCC(O)COc1cccc2[nH]c3ccccc3c12 (stereo not shown) [carvedilol]
- Solubility in pure water: 50 µg/mL (≈ 123 µM)
